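Tested at 5 concentrations; 48 h exposure; 96-well plates; endpoints linearly interpolated, else capped at highest concentration. Abbreviation: GI50, concentration required for 50% inhibition of growth.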 Calls of active or inactive are those of the source. Rule as the data show it: active = GI50 up to about 1.1 µM and inactive = higher.
Legend:
Assay in all cases: DTP human tumour cell line panel, 48 h
DLD-1 = tested on: DLD-1
DMS-273 = tested on: DMS-273
HOP-18 = tested on: HOP-18
KM-20L2 = tested on: KM-20L2
LXFL 529 = tested on: LXFL 529
RXF 631 = tested on: RXF 631
SNB-78 = tested on: SNB-78
XF498 = tested on: XF498
BT-549 = tested on: BT-549

Measured: GI50

N=C(N)NS(=O)(=O)c1ccc(NC(=O)c2cccn3c(=O)c4ccccc4nc23)cc1
inactive: DLD-1 83 µM | DMS-273 32.1 µM | HOP-18 > 100 µM | KM-20L2 13.6 µM | LXFL 529 37.5 µM | RXF 631 41.4 µM | SNB-78 > 100 µM | XF498 22.5 µM

C(=C\c1cc(CCc2nc3ccccc3[nH]2)n[nH]1)/c1ccccc1
inactive: DLD-1 > 100 µM | HOP-18 > 100 µM | KM-20L2 > 100 µM | RXF 631 > 100 µM | XF498 > 100 µM

C/C(CC(=O)NCCc1ccccc1)=N\NC(=O)C[n+]1ccccc1
inactive: DLD-1 > 100 µM | DMS-273 > 100 µM | KM-20L2 > 100 µM | LXFL 529 > 100 µM | RXF 631 > 100 µM | SNB-78 > 100 µM | XF498 > 100 µM

CC(=O)NNc1nc(C)c(C(=O)NNC(=O)C(=O)Nc2nc3ccc([N+](=O)[O-])cc3s2)s1
inactive: BT-549 45.8 µM | DLD-1 46.1 µM | DMS-273 62.4 µM | KM-20L2 > 100 µM | LXFL 529 49.9 µM | RXF 631 41.6 µM | SNB-78 69.5 µM | XF498 25 µM

COC(=O)C(CC(=O)c1ccccc1)c1ccccc1NC(C)=O (centres undefined)
inactive: DLD-1 > 100 µM | HOP-18 > 100 µM | KM-20L2 > 100 µM | LXFL 529 > 100 µM | RXF 631 > 100 µM | SNB-78 > 100 µM | XF498 > 100 µM

CC(=O)Nc1ccc(/C=c2\sc3nnc(CCC(=O)Nc4ccccc4Cl)n3c2=O)cc1
inactive: DLD-1 32.4 µM | HOP-18 52.8 µM | LXFL 529 30 µM | RXF 631 32.9 µM | SNB-78 47.3 µM | XF498 25.1 µM

C[Si](C)(C)CC(N)=O
inactive: DLD-1 > 100 µM | DMS-273 > 100 µM | HOP-18 > 100 µM | KM-20L2 > 100 µM | LXFL 529 > 100 µM | RXF 631 > 100 µM | SNB-78 > 100 µM | XF498 > 100 µM

COc1cc2c(cc1OC)C1[C@@H](c3ccccc3)OCN1CC2 (some centres undefined)
inactive: DLD-1 > 86.9 µM | DMS-273 > 100 µM | HOP-18 > 100 µM | KM-20L2 > 100 µM | LXFL 529 > 100 µM | RXF 631 > 100 µM | SNB-78 > 73.1 µM | XF498 > 100 µM

C=CCOCCCC(=O)C(=[N+]=[N-])C(=O)OC
inactive: DLD-1 > 100 µM | HOP-18 > 100 µM | KM-20L2 > 100 µM | LXFL 529 > 100 µM | RXF 631 > 100 µM | SNB-78 > 100 µM | XF498 > 100 µM

CN(C)c1ccc(/C=C2\N=C(c3ccc(N)cc3)OC2=O)cc1
inactive: DLD-1 > 100 µM | DMS-273 > 100 µM | HOP-18 > 100 µM | KM-20L2 > 100 µM | LXFL 529 > 100 µM | RXF 631 > 100 µM | SNB-78 > 100 µM | XF498 > 100 µM

CCCC(=O)c1c(NOC2OCC(OC(C)=O)C(OC(C)=O)C2OC(C)=O)nc(OC)n(C)c1=O (centres undefined)
inactive: DLD-1 > 100 µM | DMS-273 > 100 µM | HOP-18 > 100 µM | KM-20L2 > 100 µM | LXFL 529 > 100 µM | RXF 631 > 100 µM | XF498 > 100 µM

Source: ChEMBL document CHEMBL1201862, “PubChem BioAssay data set” (2004)
